According to patent publication US11427783B2, “Perfuming compositions” (Firmenich SA, priority 2016, dated 2022):
Where “and” joins values, the source holds several entries; their conditions need not be identical. Equal values may be shown once. Where a name gives a salt, the structure may show the parent alone. Read-outs that look alike come from different tables or passages of the source.

Assays:
[1] = physchem
[2] = Volatility of perfuming compounds in air; assay type: physicochemical
[3] = Table 5, perfuming compounds having a green note
[4] = Table 10, perfuming compounds having a woody note
[5] = Table 6, perfuming compounds having a fruity note
[6] = Table 9, perfuming compounds having a gourmand note
[7] = Table 8, perfuming compounds having a sweet note

CC1(C)CC=C(CCC=O)CC1
logP ([1]; n-octanol/water): 3.3
Volatility [2, 3]: 417.92 μg/l air

CCC(=O)O[C@H]1C[C@@H]2CC[C@@]1(C)C2(C)C
logP ([1]; n-octanol/water): 4.66
Volatility (μg/l air) [2, 4]: 216.42 μg/l air

C/C=C/C(=O)C1=C(C)C=CCC1(C)C
logP ([1]; n-octanol/water): 3.27
Volatility (μg/l air) [2, 5]: 119.10 μg/l air and 91.38 μg/l air
Volatility (μg/l air) [2, 4]: 91.38 μg/l air

CC(C)[C@@H]1CC[C@@H](C)CC1=NO
logP ([1]; n-octanol/water): 2.81
Volatility [2, 3]: 22.29 μg/l air

C[C@@H]1CC[C@H]2[C@H](C)C(=O)O[C@@H]2C1
logP ([1]; n-octanol/water): 2.11
Volatility (μg/l air) [2, 6]: 74.03 μg/l air

C/C=C(\C)C(=O)OCC/C=C\CC
logP ([1]; n-octanol/water): 3.96
Volatility [2, 3]: 168.78 μg/l air

CC/C(=C\C[C@H]1CC=C(C)C1(C)C)CO
logP ([1]; n-octanol/water): 4.44
Volatility (μg/l air) [2, 4]: 2.75 μg/l air

COC(C)(C)[C@H]1CC=C(C)CC1
logP ([1]; n-octanol/water): 4.59
Volatility [2, 3]: 993.39 μg/l air

CCCC(O)CC[C@@H]1[C@@H](C)CCCC1(C)C (mixture of isomers)
logP ([1]; n-octanol/water): 5.42
Volatility (μg/l air) [2, 4]: 2.34 μg/l air

CC(=O)O[C@@H]1C(C)(C)CCC[C@]12CC=C(C)C[C@H]2C (racemic)
logP ([1]; n-octanol/water): 6.44
Volatility (μg/l air) [2, 4]: 8.25 μg/l air

CC(=O)O[C@@H]1CC[C@@H]2C(C)(C)CCC[C@@]2(C)C1 (racemic)
logP ([1]; n-octanol/water): 5.5
Volatility (μg/l air) [2, 4]: 14.41 μg/l air

C=CC1(C)CCCC(C)(C)O1 (racemic)
logP ([1]; n-octanol/water): 3.59
Volatility [2, 3]: 23116.66 μg/l air

CCCCCC1(C)CCC(C)(C)C1=O (racemic)
logP ([1]; n-octanol/water): 4.63

CC1=CCC(CCC(C)C(C)O)C1(C)C (racemic)
logP ([1]; n-octanol/water): 4.68
Volatility (μg/l air) [2, 4]: 5.22 μg/l air

CC1CCC2C(C)(C)C3CC12CCC3(C)O (racemic)
logP [1]: 5.39
Volatility (μg/l air) [2, 4]: 11.83 μg/l air

CC1COCc2cc3c(cc21)C(C)(C)C(C)C3(C)C (racemic)
logP [1]: 6.57
Volatility (μg/l air) [2, 5]: 1.59 μg/l air

CC(=O)/C=C/C1C(C)=CCCC1(C)C (racemic)
logP [1]: 4.06
Volatility [2, 3]: 68.11 μg/l air

C=C1CCCC(C)(C)C1C(=O)OC (racemic)
logP ([1]; n-octanol/water): 3.93

CC/C=C\C[C@H]1C(=O)CC[C@@H]1CC(=O)OC (racemic)
logP ([1]; n-octanol/water): 2.33
Volatility (μg/l air) [2, 5]: 1.59 μg/l air

C=CC(O)CCCCC (racemic) [(+−)-1-octen-3-ol]
logP ([1]; n-octanol/water): 2.33
Volatility [2, 3]: 3030.11 μg/l air

CC(CO)c1ccccc1 (racemic) [(+−)-2-phenyl-1-propanol]
logP ([1]; n-octanol/water): 1.74
Volatility [2, 3]: 142.19 μg/l air

CCCCCCCCC1CCC(=O)O1 (racemic) [(+−)-5-octyldihydro-2(3H)-furanone]
logP ([1]; n-octanol/water): 3.82
Volatility (μg/l air) [2, 5]: 1.44 μg/l air

CCOC(C)OC1CCCCCCCCCCC1 (racemic) [(+−)-(1-ethoxyethoxy)cyclododecane]
logP ([1]; n-octanol/water): 6.68
Volatility (μg/l air) [2, 4]: 5.04 μg/l air

O=C1CCCCCCCCCCC(=O)OCCO1 [1,4-dioxacyclohexadecane-5,16-dione]
logP ([1]; n-octanol/water): 3.83
Volatility (μg/l air) [2, 7]: 0.46 μg/l air

C/C=C/c1ccc(OC)cc1 [1-methoxy-4-[(1E)-1-propen-1-yl]benzene]
logP [1]: 3.58
Volatility (μg/l air) [2, 7]: 184.60 μg/l air
Volatility (μg/l air) [2, 6]: 184.60 μg/l air

O=C1CCC2(CCCCC2)O1 [1-oxaspiro[4.5]decan-2-one]
logP ([1]; n-octanol/water): 1.66
Volatility (μg/l air) [2, 6]: 62.86 μg/l air

CC(C)CCOCCc1ccccc1 [3-METHYLBUTYL 2-PHENYLETHYL ETHER]
Volatility (μg/l air) [2, 5]: 110.11 μg/l air
Volatility (μg/l air) [2, 7]: 110.11 μg/l air
Volatility (μg/l air) [2, 6]: 110.11 μg/l air

CCOc1cc(C=O)ccc1O [3-ethoxy-4-hydroxybenzaldehyde]
logP [1]: 1.27
Volatility (μg/l air) [2, 7]: 0.11 μg/l air

CC(C)(C)C1CCC(=O)CC1 [4-(2-methyl-2-propanyl)cyclohexanone]
logP ([1]; n-octanol/water): 2.77
Volatility (μg/l air) [2, 4]: 755.28 μg/l air

CC(=O)CCc1ccc(O)cc1 [4-(4-HYDROXY-1-PHENYL)-2-BUTANONE]
Volatility (μg/l air) [2, 5]: 0.36 μg/l air

COc1ccc(CCC(C)=O)cc1 [4-(4-METHOXYPHENYL)-2-BUTANONE]
Volatility (μg/l air) [2, 5]: 5.58 μg/l air
Volatility (μg/l air) [2, 7]: 5.58 μg/l air
Volatility (μg/l air) [2, 6]: 5.58 μg/l air

COc1ccc(C=O)cc1 [4-METHOXYBENZALDEHYDE]
Volatility [2, 3]: 98.47 μg/l air

COc1ccc(COC(C)=O)cc1 [4-METHOXYBENZYL ACETATE]
Volatility (μg/l air) [2, 5]: 17.59 μg/l air

CC(=O)OC1CCC2C(C)(C)CCCC2(C)C1 (stereo not shown) [5,5,8a-trimethyldecahydro-2-naphthalenyl acetate]
logP ([1]; n-octanol/water): 5.5
Volatility (μg/l air) [2, 4]: 14.41 μg/l air

CC=CC(=O)C(C)CC (stereo not shown) [5-METHYL-2-HEPTEN-4-ONE]
Volatility (μg/l air) [2, 7]: 5525.83 μg/l air

CCCCC1CCCC(=O)O1 (stereo not shown) [5-NONANOLIDE]
Volatility (μg/l air) [2, 5]: 23.87 μg/l air
Volatility (μg/l air) [2, 7]: 23.87 μg/l air
Volatility (μg/l air) [2, 6]: 23.87 μg/l air

COCCc1ccccc1 [(2-METHOXYETHYL)BENZENE]
Volatility [2, 3]: 1239.07 μg/l air

CC(=O)/C=C/C1=C(C)CCCC1(C)C [(3E)-4-(2,6,6-trimethyl-1-cyclohexen-1-yl)-3-buten-2-one]
logP ([1]; n-octanol/water): 3.88
Volatility (μg/l air) [2, 4]: 35.41 μg/l air

CC/C=C\CCOC(=O)c1ccccc1O [(3Z)-3-hexen-1-yl salicylate]
logP ([1]; n-octanol/water): 4.83
Volatility [2, 3]: 4.34 μg/l air

CCC/C=C/CO [(E)-2-HEXEN-1-OL]
Volatility [2, 3]: 3752.17 μg/l air

CC(=O)OC/C=C(\C)CCC=C(C)C [(E)-3,7-DIMETHYL-2,6-OCTADIENYL ACETATE]
Volatility (μg/l air) [2, 5]: 85.23 μg/l air

O=C/C=C/c1ccccc1 [(E)-3-PHENYL-2-PROPENAL]
Volatility (μg/l air) [2, 4]: 70.14 μg/l air

N#C/C=C/c1ccccc1 [(E)-3-PHENYL-2-PROPENENITRILE]
Volatility (μg/l air) [2, 4]: 66.00 μg/l air

CC(=O)OC/C=C/c1ccccc1 [(E)-3-PHENYL-2-PROPENYL ACETATE]
Volatility (μg/l air) [2, 5]: 20.47 μg/l air

CCC(=O)OC/C=C/c1ccccc1 [(E)-3-PHENYL-2-PROPENYL PROPANOATE]
Volatility (μg/l air) [2, 5]: 8.14 μg/l air

CCOCOC1CCCCCCCCCCC1 [(ETHOXYMETHOXY)CYCLODODECANE]
Volatility (μg/l air) [2, 4]: 6.63 μg/l air

CC/C=C\CCO [(Z)-3-HEXEN-1-OL]
Volatility [2, 3]: 5986.62 μg/l air

CC/C=C\CCOC(C)=O [(Z)-3-HEXENYL ACETATE]
Volatility [2, 3]: 3398.34 μg/l air

CCCCC/C=C\CCC=O [(Z)-4-DECENAL]
Volatility [2, 3]: 629.54 μg/l air

CC/C=C\CCCCCO [(Z)-6-NONEN-1-OL]
logP [1]: 3.44
logP ([1]; n-octanol/water): 3.44
Volatility ([2]; Table 4, watery note): 6.91 μg/l air
Volatility [2, 3]: 6.91 μg/l air

CC/C=C\CCCCC=O [(Z)-6-NONENAL]
Volatility [2, 3]: 2431.73 μg/l air

C=CCOC(=O)CCCCC [ALLYL HEXANOATE]
logP ([1]; n-octanol/water): 3.62

CC(C)CC(=O)OCc1ccccc1 [BENZYL 3-METHYLBUTANOATE]
Volatility (μg/l air) [2, 5]: 63.56 μg/l air
Volatility (μg/l air) [2, 7]: 63.56 μg/l air

C/C=C(\C)C(=O)OCc1ccccc1 [BENZYL (E)-2-METHYL-2-BUTENOATE]
Volatility (μg/l air) [2, 5]: 33.88 μg/l air
Volatility (μg/l air) [2, 4]: 33.88 μg/l air

O=COCc1ccccc1 [BENZYL FORMATE]
Volatility [2, 3]: 1339.53 μg/l air

N#CC(=C1CCCCC1)c1ccccc1 [CYCLOHEXYLIDENE(PHENYL)ACETONITRILE]
Volatility [2, 3]: 0.96 μg/l air

CCOC(=O)C1OC1(C)c1ccccc1 (stereo not shown) [ETHYL 2,3-EPDXY-3-PHENYLBUTANOATE]
Volatility (μg/l air) [2, 5]: 12.97 μg/l air

CCOC(=O)/C=C/c1ccccc1 [ETHYL (E)-3-PHENYL-2-PROPENOATE]
Volatility (μg/l air) [2, 5]: 20.55 μg/l air

CCOC(C)=O [ETHYL ACETATE]
logP [1]: 0.8

CCOC(=O)c1ccccc1 [ETHYL BENZOATE]
logP [1]: 2.51

CCOC(=O)C(C)C [ETHYL ISOBUTYRATE]
logP ([1]; n-octanol/water): 2.03

CCOC(=O)Cc1ccccc1 [ETHYL PHENYLACETATE]
logP [1]: 2.1

COC(=O)/C=C/c1ccccc1 [METHYL (E)-3-PHENYL-2-PROPENOATE]
Volatility (μg/l air) [2, 5]: 61.65 μg/l air

COC(=O)Cc1ccccc1 [METHYL PHENYLACETATE]
Volatility (μg/l air) [2, 7]: 555.30 μg/l air
Volatility (μg/l air) [2, 6]: 555.30 μg/l air

CC(=O)OCc1ccccc1 [benzyl acetate]
logP ([1]; n-octanol/water): 2.04

CCOC(=O)/C(C)=C/C(C)C [ethyl (2E)-2,4-dimethyl-2-pentenoate]
logP ([1]; n-octanol/water): 3.35

CCCCCCC(=O)OCC [ethyl heptanoate]
logP ([1]; n-octanol/water): 3.58

COC(=O)C=C1CCCC1 [methyl cyclopentylideneacetate]
logP ([1]; n-octanol/water): 2.02

(−)-(1S)-2,6,6-TRIMETHYL-BICYCLO[3.1.1]HEPT-2-ENE
Volatility [2, 3]: 33722.60 μg/l air
